{"source": "the supplement of paper PMC11208160", "data": [{"experiment": "recombinant barcode read abundance after kanamycin selection (control-corrected) (log10(CPM+1)); higher = more efficient recombination; sequences stand for … in AGTGCAGAGAAAATCGGCCAGTTTTCTCTGCCTGCAGTCCGCATGCCGT…AGATTTATGCAGCGGACTGCCTTTCTCCCAAAGTGATAAACCGGACAGTATCATGGACCGGTTTTCCCGGTAATCCGTATTTGCAAGGTTGGTTTCACT; site = the 11-nt target", "summary_of_the_method": "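A vector carrying a T7-inducible recombinase and the last 73 bp of the bridge RNA received, by Gibson cloning, oligos encoding a promoter, target, barcode and the first 104 bridge RNA bases under J23119. The pooled constructs entered E. coli together with a donor plasmid by electroporation. Selection used chloramphenicol/ampicillin/kanamycin with 0.1 mM IPTG, with chloramphenicol/ampicillin LB agar as the control, each in two replicates. Recombination efficiency is the averaged, control-corrected counts-per-million of barcodes at recombinant junctions, reported as log10(CPM+1).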", "values": [{"sequence": "CGAGCTCCTTGGGTTCTAACCTGTTGCTT (site CGAGCTCCTAG)", "recombinant barcode read abundance (log10)": 1.1}, {"sequence": "CGAGCTCCTTGGGTTCTAACCTGTTGCTT (site CGAGCTCCTAT)", "recombinant barcode read abundance (log10)": 0.337}, {"sequence": "CGAGGGGCTTGGGTTCTAACCTGTTGCCT (site CGAGGGACTAG)", "recombinant barcode read abundance (log10)": 0.127}, {"sequence": "CGAGGGGCTTGGGTTCTAACCTGTTGCCT (site CGAGGGCCTAG)", "recombinant barcode read abundance (log10)": 0.0526}, {"sequence": "CGAGGGGCTTGGGTTCTAACCTGTTGCCT (site CGAGGGGCTAG)", "recombinant barcode read abundance (log10)": 0.369}, {"sequence": "CGAGGGGCTTGGGTTCTAACCTGTTGCCT (site CGAGGGTCTAG)", "recombinant barcode read abundance (log10)": 0.35}, {"sequence": "CGATAGCCTTGGGTTCTAACCTGTTGCCT (site AGATAGCCTAG)", "recombinant barcode read abundance (log10)": 0.024}, {"sequence": "CGATAGCCTTGGGTTCTAACCTGTTGCCT (site CGATAGCCTAG)", "recombinant barcode read abundance (log10)": 0.643}, {"sequence": "CGATAGCCTTGGGTTCTAACCTGTTGCCT (site GGATAGCCTAG)", "recombinant barcode read abundance (log10)": 0.132}, {"sequence": "CGATAGCCTTGGGTTCTAACCTGTTGCCT (site TGATAGCCTAG)", "recombinant barcode read abundance (log10)": 0}, {"sequence": "CGATCTACTTGGGTTCTAACCTGTTGCAG (site AAGGGGCCTAG)", "recombinant barcode read abundance (log10)": 0.23}, {"sequence": "CGATCTACTTGGGTTCTAACCTGTTGCAG (site CGATCTACTCT)", "recombinant barcode read abundance (log10)": 0.0308}, {"sequence": "CGATTAACTTGGGTTCTAACCTGTTGCCT (site CGATTAACTAG)", "recombinant barcode read abundance (log10)": 0.139}, {"sequence": "CGATTAACTTGGGTTCTAACCTGTTGCCT (site CGATTACCTAG)", "recombinant barcode read abundance (log10)": 0.361}, {"sequence": "CGATTAACTTGGGTTCTAACCTGTTGCCT (site CGATTAGCTAG)", "recombinant barcode read abundance (log10)": 0.107}, {"sequence": "CGATTAACTTGGGTTCTAACCTGTTGCCT (site CGATTATCTAG)", "recombinant barcode read abundance (log10)": 0.0439}, {"sequence": "CGCAAATCTTGGGTTCTAACCTGTTGCCT (site CGAAAATCTAG)", "recombinant barcode read abundance (log10)": 0.0245}, {"sequence": "CGCAAATCTTGGGTTCTAACCTGTTGCCT (site CGCAAATCTAG)", "recombinant barcode read abundance (log10)": 0.0815}, {"sequence": "CGCAAATCTTGGGTTCTAACCTGTTGCCT (site CGGAAATCTAG)", "recombinant barcode read abundance (log10)": 0.0907}, {"sequence": "CGCAAATCTTGGGTTCTAACCTGTTGCCT (site CGTAAATCTAG)", "recombinant barcode read abundance (log10)": 0.166}, {"sequence": "CGCCACCCTTGGGTTCTAACCTGTTGCCT (site CGCCACCCTAG)", "recombinant barcode read abundance (log10)": 0.165}, {"sequence": "CGCCACCCTTGGGTTCTAACCTGTTGCCT (site CTGCACCCTAG)", "recombinant barcode read abundance (log10)": 0.0944}, {"sequence": "CGCCCGCCTTGGGTTCTAACCTGTTGCCT (site AGCCCGCCTAG)", "recombinant barcode read abundance (log10)": 0.165}, {"sequence": "CGCCCGCCTTGGGTTCTAACCTGTTGCCT (site CGCCCGCCTAG)", "recombinant barcode read abundance (log10)": 0.0631}, {"sequence": "CGCCCGCCTTGGGTTCTAACCTGTTGCCT (site GGCCCGCCTAG)", "recombinant barcode read abundance (log10)": 0.109}, {"sequence": "CGCCCGCCTTGGGTTCTAACCTGTTGCCT (site TGCCCGCCTAG)", "recombinant barcode read abundance (log10)": 0.0262}, {"sequence": "CGCCCTACTTGGGTTCTAACCTGTTGCTT (site CGCCCTACTAA)", "recombinant barcode read abundance (log10)": 0.311}, {"sequence": "CGCCCTACTTGGGTTCTAACCTGTTGCTT (site CGCCTAACTAA)", "recombinant barcode read abundance (log10)": 0.491}, {"sequence": "CGCCTAACTTGGGTTCTAACCTGTTGCTT (site CGCCCTACTAA)", "recombinant barcode read abundance (log10)": 0.0705}, {"sequence": "CGCCTAACTTGGGTTCTAACCTGTTGCTT (site CGCCTAACTAA)", "recombinant barcode read abundance (log10)": 0.126}, {"sequence": "CGCCTCCCTTGGGTTCTAACCTGTTGCAT (site CGCCTCCCTAT)", "recombinant barcode read abundance (log10)": 0.159}, {"sequence": "CGCCTCCCTTGGGTTCTAACCTGTTGCAT (site GGCCTCCCTAT)", "recombinant barcode read abundance (log10)": 0}, {"sequence": "CGCGATCCTTGGGTTCTAACCTGTTGCGT (site AGCGACCCTAC)", "recombinant barcode read abundance (log10)": 0.0431}, {"sequence": "CGCGATCCTTGGGTTCTAACCTGTTGCGT (site CGCGATCCTAC)", "recombinant barcode read abundance (log10)": 0.834}, {"sequence": "CGCGCTCCTTGGGTTCTAACCTGTTGCCT (site CGCGATCCTAG)", "recombinant barcode read abundance (log10)": 0.0445}, {"sequence": "CGCGCTCCTTGGGTTCTAACCTGTTGCCT (site CGCGCTCCTAG)", "recombinant barcode read abundance (log10)": 0.245}, {"sequence": "CGCGCTCCTTGGGTTCTAACCTGTTGCCT (site CGCGGTCCTAG)", "recombinant barcode read abundance (log10)": 0.0941}, {"sequence": "CGCGCTCCTTGGGTTCTAACCTGTTGCCT (site CGCGTTCCTAG)", "recombinant barcode read abundance (log10)": 0.0658}, {"sequence": "CGCTTACCTTGGGTTCTAACCTGTTGCCT (site AGCTTACCTAG)", "recombinant barcode read abundance (log10)": 0.143}, {"sequence": "CGCTTACCTTGGGTTCTAACCTGTTGCCT (site CGCTTACCTAG)", "recombinant barcode read abundance (log10)": 0.0899}, {"sequence": "CGCTTACCTTGGGTTCTAACCTGTTGCCT (site GGCTTACCTAG)", "recombinant barcode read abundance (log10)": 0.0208}, {"sequence": "CGCTTACCTTGGGTTCTAACCTGTTGCCT (site TGCTTACCTAG)", "recombinant barcode read abundance (log10)": 0.192}, {"sequence": "CGCTTGTCTTGGGTTCTAACCTGTTGCCG (site CGCTTGTCTCG)", "recombinant barcode read abundance (log10)": 0.134}, {"sequence": "CGCTTGTCTTGGGTTCTAACCTGTTGCCG (site CTCTTGTCTTG)", "recombinant barcode read abundance (log10)": 0.0615}, {"sequence": "CGGACGCCTTGGGTTCTAACCTGTTGCCT (site CGGACGACTAG)", "recombinant barcode read abundance (log10)": 0.352}, {"sequence": "CGGACGCCTTGGGTTCTAACCTGTTGCCT (site CGGACGCCTAG)", "recombinant barcode read abundance (log10)": 0.892}, {"sequence": "CGGACGCCTTGGGTTCTAACCTGTTGCCT (site CGGACGGCTAG)", "recombinant barcode read abundance (log10)": 1.51}, {"sequence": "CGGACGCCTTGGGTTCTAACCTGTTGCCT (site CGGACGTCTAG)", "recombinant barcode read abundance (log10)": 0.25}, {"sequence": "CGGACTTCTTGGGTTCTAACCTGTTGCCT (site CAGACTTCTAG)", "recombinant barcode read abundance (log10)": 0.182}, {"sequence": "CGGACTTCTTGGGTTCTAACCTGTTGCCT (site CCGACTTCTAG)", "recombinant barcode read abundance (log10)": 0.049}, {"sequence": "CGGACTTCTTGGGTTCTAACCTGTTGCCT (site CGGACTTCTAG)", "recombinant barcode read abundance (log10)": 0.0521}, {"sequence": "CGGACTTCTTGGGTTCTAACCTGTTGCCT (site CTGACTTCTAG)", "recombinant barcode read abundance (log10)": 0.0412}, {"sequence": "CGGAGAGCTTGGGTTCTAACCTGTTGCCT (site CAGAGAGCTAG)", "recombinant barcode read abundance (log10)": 0.402}, {"sequence": "CGGAGAGCTTGGGTTCTAACCTGTTGCCT (site CCGAGAGCTAG)", "recombinant barcode read abundance (log10)": 0.433}, {"sequence": "CGGAGAGCTTGGGTTCTAACCTGTTGCCT (site CGGAGAGCTAG)", "recombinant barcode read abundance (log10)": 1.83}, {"sequence": "CGGAGAGCTTGGGTTCTAACCTGTTGCCT (site CTGAGAGCTAG)", "recombinant barcode read abundance (log10)": 0}, {"sequence": "CGGAGCCCTTGGGTTCTAACCTGTTGCCT (site CAAAGCCCTAG)", "recombinant barcode read abundance (log10)": 0.0117}, {"sequence": "CGGAGCCCTTGGGTTCTAACCTGTTGCCT (site CGGAGCCCTAG)", "recombinant barcode read abundance (log10)": 1.27}, {"sequence": "CGGATCCCTTGGGTTCTAACCTGTTGCCT (site CAGATCCCTAG)", "recombinant barcode read abundance (log10)": 0.555}, {"sequence": "CGGATCCCTTGGGTTCTAACCTGTTGCCT (site CCGATCCCTAG)", "recombinant barcode read abundance (log10)": 0.159}, {"sequence": "CGGATCCCTTGGGTTCTAACCTGTTGCCT (site CGGATCCCTAG)", "recombinant barcode read abundance (log10)": 1.39}, {"sequence": "CGGATCCCTTGGGTTCTAACCTGTTGCCT (site CTGATCCCTAG)", "recombinant barcode read abundance (log10)": 0.284}, {"sequence": "CGGCGTACTTGGGTTCTAACCTGTTGCCT (site CGACGTACTAG)", "recombinant barcode read abundance (log10)": 0.14}, {"sequence": "CGGCGTACTTGGGTTCTAACCTGTTGCCT (site CGCCGTACTAG)", "recombinant barcode read abundance (log10)": 0.103}, {"sequence": "CGGCGTACTTGGGTTCTAACCTGTTGCCT (site CGGCGTACTAG)", "recombinant barcode read abundance (log10)": 0.959}, {"sequence": "CGGCGTACTTGGGTTCTAACCTGTTGCCT (site CGTCGTACTAG)", "recombinant barcode read abundance (log10)": 0.069}]}]}
